Reference: patent US5786165A, “Herbicide test method” (Agrevo UK Limited, priority 1994, dated 1998)

Columns and labels:
[1] = system: crude, desalted homogenates from pea seedlings; test: Adenylate metabolism pathway in a crude plant homogenate; type: in vitro ADME, Peas (Pisum sativum L var Onward); details: without ATP, 10 minutes at 25° C.
Description: Peas (Pisum sativum L var Onward) were grown in soil for 10 days at 25° C. with a 16 hour/8 hour light/dark cycle. The seedlings were harvested close to soil level and a crude homogenate of was prepared by homogenization in 2 volumes of ice cold buffer containing tris-HCl (0.1M, pH 7.4 with 5M NaOH), 0.1 mM dithiothreitol and 0.4M sucrose using a Waring blender (1 minute, top speed). The homogenate was passed through 6 layers of muslin and 2.5 ml desalted on a sephadex (Registered Trade Mark) PD10 column (1.5 cm×8 cm) which had been pre-equilibrated with the homogenization buffer. Protein was eluted using the same buffer. The assay contained, in a total volume of 250 μl, 50 mM Tris-HCl (pH 6.5), 50 mM KCl, 0.05% (w/v) BSA and […] protein. ATP (5 mM) was also included where indicated. The assay was started by the addition of [^14 C] adenosine (500 μM, 0.2 μCi). After incubation at 25° C. for 10 minutes, the reaction was stopped by the addition of 0.25 ml ice cold HClO4 (0.4M). Precipitated protein was removed by centrifugation (13,000 g, 2 minutes) and 0.4 ml of the resulting supernatant applied to phenylsilane bonded silica gel columns (500 mg) which had been previously washed with 2 volumes of methanol and then 2 ml 0.4M HClO4. Samples were eluted with 4 ml 0.4M HClO4. The pH of the eluate was adjusted on ice to between 5.5 and 7.0 with 5M KOH. The neutralised extract was centrifuged (13,000 g, 2 minutes) and evaporated to dryness in a Gyrovap (Registered Trade Mark). The sample was then re-dissolved in 0.5 ml 10 mM HCl and centrifuged (13,000 g, 2 minutes) prior to HPLC analysis. The products were analysed using reverse phase chromatography with a spherisorb (Registered Trade Mark) column (25 cm×0.46 cm), solvent 1: 95:5 10 mM KH2 PO4 : methanol; solvent 2: 88:12 10 mM KH2 PO4 : methanol, pH 5.3, step change at 6 minutes, Flow rate: 1 ml/minute.

[2] = system: plant AMP deaminase; test: Plant AMP deaminase inhibition assay; type: biochemical, Pea seedlings; details: for IC50: 10 minute preincubation, substrate concentration 640 μM, read-out: 50% inhibition of AMP deaminase activity
Description: (§1) Pea seedlings were excised near soil level, the stems quickly washed with distilled water and then stood upright in a […] containing 2 ml of compound solution or water (control). A section (approx 2 mm) was cut from the base of the stem while it was immersed to prevent air locks from forming in the xylem. The seedlings were incubated in the light at room temperature (approx 20° C.) in a moving air stream. At intervals, individual seedlings were extracted and the levels of AMP deaminase determined by extraction in 2 volumes ice cold citrate buffer (0.1M, pH 7), 0.5 mM dithiothreitol using a pestle and mortar. The homogenate was passed through 6 layers of muslin and loaded onto a sephadex gel filtration column (1.5 cm×8 cm) which had previously been equilibrated with 30 mM citrate (pH 7.1), 50 mM KCl and 0.5% (w/v) BSA (Assay buffer). The protein was eluted using the assay buffer and used directly for the enzyme assay. The assay is based on the release of ammonia (McCullough (1967), Clinica Chimica Acta, 17, 297) and contained in a total volume of 0.5 ml 60 mM citrate buffer (pH 7.1 with 5M NaOH) 100 mM KCl, 0.1% (w/v) BSA and 5 mM AMP. The reaction was started by the addition of 50 μl extract. At 15 minute intervals from 0 to 60 minutes, the reaction was stopped by the addition of 420 μl reagent 1 (0.1M phenol, 0.17 mM sodium nitroprusside) immediately followed by 275 μl reagent 2 (0.125M NaOH, 0.38M Na2 HPO4 and 5 ml HOCl in a total volume of 500 ml). Following incubation for 60 minutes at 55° C., the absorbance of the solutions at 625 nm was determined.
Pea seedlings were grown as described in Test Example 2. The seedlings were harvested close to soil level and homogenized in 2 volumes of ice cold phosphate buffer (pH 7.5) containing 0.1 mM dithiothreitol and 0.4M sucrose using a Waring blender (1 minute, top speed). All of the following operations were carried out at 4° C. The homogenate was filtered through 6 layers of muslin and centrifuged at 100,000 g for 20 minutes to remove cell debris. To the resulting supernatant was added 40% (w/v) ammonium sulphate while stirring constantly. The precipitate was collected by centrifugation (12,000 g, 15 minutes) and dissolved in 30 ml phosphate buffer (pH 7.5), 0.1 mM dithiothreitol then dialyzed overnight against 2 l of the same buffer. Insolubles formed during the overnight dialysis were removed by centrifugation (7,000 g, 10 minutes). The supernatant was applied to a phospho-cellulose column (1.5×8 cm) which had been pre-equilibrated with 0.1M phosphate buffer (pH 7.5). After loading, the column was washed with 14 ml phosphate buffer (0.1M, pH 7.5) and the enzyme eluted with 0.6M phosphate buffer (pH 7.5). Activity was determined using the ammonia release assay described in Test Example 3 above.

[3] = system: AMP deaminase; test: Extractable levels of AMP deaminase in treated pea seedlings; type: in vivo
Description: as §1, with “At 15 minute intervals from 0 to 60 minutes, the reaction was stopped by the addition of 420 μl reagent 1 (0.1M phenol, 0.17 mM sodium nitroprusside) immediately followed by 275 μl reagent 2 (0.125M NaOH, 0.38M Na2 HPO4 and 5 ml HOCl in a total volume of 500 ml).” left out

[4] = system: extractable ATP levels in pea seedlings; test: Measurement of extractable ATP levels; type: in vivo, Peas
Description: Peas were grown as described in Test Example 1 and exposed to carbocyclic coformycin via the transpiration stream as outlined in Test Example 3. Individual seedlings were rapidly frozen in liquid nitrogen. The frozen tissue was ground to a fine powder using a pestle and mortar then 1 ml ice cold 0.4M HClO4 was added. The frozen acid was ground to a fine powder tissue, the mixture allowed to thaw and then incubated on ice for 15 minutes. The extract was centrifuged (4,000 rpm, 5 minutes).
ATP measurements were made using the luciferase assay and a LUMAC Biocounter M2500 (6370 AC Landgraaf, The Netherlands). Samples were diluted 1:10,000 in water and 100 μl was assayed according to the manufacturer's instructions.

[5] = system: Pea seedlings; test: In planta metabolism of carbocyclic coformycin; type: in vivo; details: 10 μM [3H] compound via the transpiration stream; 4 hours incubation
Description: Pea seedlings were grown as described in Test Example 2, harvested as described in Test Example 3 and then supplied with 10 μM (400 Ci mol^-1) [^3 H] carbocyclic coformycin via the transpiration stream. After incubation periods, pairs of seedlings were rapidly frozen in liquid nitrogen, ground to a fine powder and extracted in 2 ml ice cold 0.4M HClO4. The extracts were processed for HPLC analysis as described in Test Example 2 above except that the final sample was resuspended in 0.5 ml water instead of 10 mM HCl. [^3 H] carbocyclic coformycin and [^3 H] carbocyclic coformycin 5'-phosphate were separated using cation exchange chromatography with a Partisil (Registered Trade Mark) SCX column (8.0 cm×0.46 cm), 0.05M NH4 H2 PO4, pH 2.6; flow rate=2 ml/minute.

[6] = target: T1, calf intestinal mucosa adenosine deaminase (Bos taurus, UniProt P56658); test: Mammalian adenosine deaminase inhibition assay; type: biochemical
T1 construct: calf intestinal mucosa adenosine deaminase; purchased Sigma Chemical Company Limited; host or cells: calf intestinal mucosa
Description: Mammalian Adenosine Deaminase Inhibition Assay
A suitable source of enzyme is calf intestinal mucosa adenosine deaminase supplied by the Sigma Chemical Company Limited. The assay employed follows the protocol provided by the supplier and measures a decrease in absorption at 265 nm as the substrate adenosine is utilized. A 10 minute preincubation of enzyme and inhibitor prior to addition of the substrate was employed.

T1 sequence (P56658 whole entry): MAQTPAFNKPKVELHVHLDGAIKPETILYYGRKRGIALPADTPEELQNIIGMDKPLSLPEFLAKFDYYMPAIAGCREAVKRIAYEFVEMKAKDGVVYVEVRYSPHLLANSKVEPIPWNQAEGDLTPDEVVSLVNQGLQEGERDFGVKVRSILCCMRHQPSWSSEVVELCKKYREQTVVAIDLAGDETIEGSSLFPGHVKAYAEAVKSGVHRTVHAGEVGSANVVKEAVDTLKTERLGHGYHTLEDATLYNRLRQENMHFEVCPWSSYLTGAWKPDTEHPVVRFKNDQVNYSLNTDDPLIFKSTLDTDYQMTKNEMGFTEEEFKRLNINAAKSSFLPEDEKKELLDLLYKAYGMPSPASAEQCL

Row | SMILES | % of radiolabel as ADP [1] | % of radiolabel as AMP [1] | % of radiolabel as ATP [1] | % of radiolabel as IMP [1] | % of radiolabel as inosine [1] | % of radiolabel as adenosine ([1]; 500 µM) | inhibition of plant AMP deaminase (in words) [2] | IC50 [2] | extractable levels of AMP deaminase (in words) ([3]; applied to pea seedlings via the transpiration stream) | extractable levels of AMP deaminase, % of the control levels ([3]; treatment for 1 hour via the transpiration stream, control 19 μmols ammonia release per gram fresh weight per minute) | ATP levels relative to the control levels ([4]; 100 μM via the transpiration stream, 4 hours treatment, control 333 nmols ATP per gram fresh weight) | rise in extractable levels of ATP (in words) ([4]; in vivo) | major metabolite in planta [5] | inhibition of mammalian adenosine deaminase (in words) [6] | IC50 ([6]; 10 minute preincubation, substrate concentration 60 μM, read-out: 50% inhibition of adenosine deaminase)
1 | Nc1ncnc2c1ncn2[C@@H]1O[C@H](CO)[C@@H](O)[C@H]1O [[^14 C adenosine, adenosine] | 0% | 0% | 0% | 0% | 0% | 100% | – | – | – | – | – | – | – | – | –
2 | O=P(O)(O)OC[C@H]1C[C@@H](n2cnc3c2N=CNC[C@H]3O)[C@H](O)[C@@H]1O [carbocyclic coformycin 5'-phosphate] | – | – | – | – | – | – | potent inhibitor | 20 nM | – | – | – | – | – | – | –
3 | OC[C@H]1C[C@@H](n2cnc3c2N=CNC[C@H]3O)[C@H](O)[C@@H]1O [carbocyclic coformycin] | – | – | – | – | – | – | relatively poor inhibitor | 120000 nM | rapid decrease | 20-30% | approximately twice | remarkable rise | co-chromatographed with authentic carbocyclic coformycin 5'-phosphate | potent inhibitor | 25 nM
